# Key:
# isolated LDL [1] = test: TBARS analysis of copper-mediated oxidation of isolated LDL; set-up: species or system New Zealand white rabbits; details: 0.1 mg/ml LDL from APAP-fed rabbits, 5 μM CuSO4, 37° C., 4, 8 and 12 hours
# Experimental: LDL Isolation: Plasma LDL was prepared by ultracentrifuation of a blood sample as disclosed in Havel, “The Distribution and Chemical Composition of Ultracentrifugally Separated Lpoproteins in Human Serum,” 34 JI. Clin. Inv. 1345 […], within a density cutoff of 1.020 g/ml to 1.055 g/ml and with the addition of 0.5 mg/ml ethylenediaminetetracetic acid (‘EDTA’) thereto. After adding a sample of this mixture to a semi-permable bag, the LDL was dialyzed therefrom against a vacuum-degassed 0.01 M Tris solution containing 0.15 M NaCl and 0.1 mg/ml EDTA under dark conditions and at 4° C. for 48 hours, followed by dialysis overnight using the same equipment but with a 0.01M phosphate buffer solution containing 0.15 M NaCl and no EDTA. The dialyzed LDL protein concentrations were then determined via the method set forth in Lowry, ‘Protein Measurement with the Folin Phenol Reagent,’ 226 J. Biol. Chem. 497-509 (1951). […] The concentrations of thiobarbituric acid reactive substances (“TBARS”) in each mixture were then measured with the same spectrophotometer as described by Streinbrecher, et al., “Decrease in reactive amino groups during oxidation or endothelial cell modification of LDL,” Arteriosclerosis 1987;7:135-143.
# [2] = Total plasma cholesterol levels in cholesterol-fed rabbits; format: in vivo, New Zealand white rabbits
# Description: Twenty-three, six-week old male New Zealand white rabbits obtained from Myrtle's Rabbitry (Houston, Tex.) and weighing between about 1.8 kg and 2 kg were separated into two groups: Group 1 (experimental) having 12 rabbit/group and Group 2 (control) having 11 rabbits/group. At the beginning of the study, all rabbits were allowed water ad libitum and ate normal rabbit chow. After a two week acclimatization period, all of the rabbits were then placed on normal rabbit chow supplemented with 1% cholesterol (ICN Biochemicals, Inc., Costa Mesa, Calif.), in order to induce fatty streak formation in their blood vessel walls. Rabbits in Group 1 were switched from water to an acetaminophen solution for about a 40 mg/kgrabbit APAP dose. A 40 mg/kg dose of APAP in a 2.5 kg rabbit is equivalent to about a 2800 mg/day dose in a 70 kg human. The other group of rabbits remained on water for the remainder of the study. The cages were monitored daily in order to assure that each rabbit consumed the contents of his respective water bottle. After cannulating the femoral artery and advancing into the distal aorta region of each rabbit, blood was aspirated therefrom for isolation of LDL fraction. The blood of each rabbit was drawn into 1000 U of Heparin sodium in order to prevent coagulation, then the plasma was separated therefrom via centrifugation at 2000 rpm for ten minutes. […]
# [3] = system: low density lipoprotein (LDL); details: literature report; cited from earlier work
# oxysterols in LDL = test: Oxysterol concentrations in LDL isolated from cholesterol-fed rabbits; format: in vivo, New Zealand white rabbits
# Experimental: LDL Isolation: Plasma LDL was prepared by ultracentrifuation of a blood sample as disclosed in Havel, “The Distribution and Chemical Composition of Ultracentrifugally Separated Lpoproteins in Human Serum,” 34 JI. Clin. Inv. 1345 […], within a density cutoff of 1.020 g/ml to 1.055 g/ml and with the addition of 0.5 mg/ml ethylenediaminetetracetic acid (‘EDTA’) thereto. After adding a sample of this mixture to a semi-permable bag, the LDL was dialyzed therefrom against a vacuum-degassed 0.01 M Tris solution containing 0.15 M NaCl and 0.1 mg/ml EDTA under dark conditions and at 4° C. for 48 hours, followed by dialysis overnight using the same equipment but with a 0.01M phosphate buffer solution containing 0.15 M NaCl and no EDTA. The dialyzed LDL protein concentrations were then determined via the method set forth in Lowry, ‘Protein Measurement with the Folin Phenol Reagent,’ 226 J. Biol. Chem. 497-509 (1951).
# (§1) Twenty-three, six-week old male New Zealand white rabbits obtained from Myrtle's Rabbitry (Houston, Tex.) and weighing between about 1.8 kg and 2 kg were separated into two groups: Group 1 (experimental) having 12 rabbit/group and Group 2 (control) having 11 rabbits/group. At the beginning of the study, all rabbits were allowed water ad libitum and ate normal rabbit chow.
# After a two week acclimatization period, all of the rabbits were then placed on normal rabbit chow supplemented with 1% cholesterol (ICN Biochemicals, Inc., Costa Mesa, Calif.), in order to induce fatty streak formation in their blood vessel walls. Rabbits in Group 1 were switched from water to an acetaminophen solution for about a 40 mg/kgrabbit APAP dose. A 40 mg/kg dose of APAP in a 2.5 kg rabbit is equivalent to about a 2800 mg/day dose in a 70 kg human. The other group of rabbits remained on water for the remainder of the study. The cages were monitored daily in order to assure that each rabbit consumed the contents of his respective water bottle.
# Oxo-sterol concentrations in the isolated LDL were also determined by the method set forth in Hughes, et. al., “Cytotoxicity of Oxidized LDL to Porcine Aortic Smooth Muscle Cells Is Associated with the Oxysterols 7-ketocholesterol and 7-hydrocholesterol,” 14(7) Arterioscler. Thromb. 1177-85 (1994). In general, the oxysterols were initially separated from the LDL via a Bligh and Dyer extraction followed by extraction using amino-propyl solid phase extraction columns available from Varian Instruments in order to further separate the lipids by polarity. The oxysterol-containing eluents were then dried therefrom under a nitrogen atmosphere and derivatized with N,O-bis(trimethylsilyl)trifluooroacetamide) (“BSTFA”) in a test tube. 10 μl of cholestane was added to the dried eluent at the time of derivatization as an internal standard. The derivatized samples were then analyzed using a gas chromatograph column having a flame ionization detector .The column program included initial temperature of 250° C. for 2 minutes, followed by temperature increases of 8° C./minute to 325° C., and then a final 8 minute temperature hold at 325° C. The amount of oxysterols in the LDL were then quantitated using known standards by ratio of the peak area of the oxysterol to cholestane. The concentrations of oxysterols are set forth below in Table B: […]
# isolated LDL [4] = test: Dienes analysis of copper-mediated oxidation of isolated LDL; set-up: species or system New Zealand white rabbits; details: 0.1 mg/ml LDL from APAP-fed rabbits, 5 μM CuSO4, 37° C., 6 hour period, FIG. 1
# Experimental: LDL Isolation: Plasma LDL was prepared by ultracentrifuation of a blood sample as disclosed in Havel, “The Distribution and Chemical Composition of Ultracentrifugally Separated Lpoproteins in Human Serum,” 34 JI. Clin. Inv. 1345 […], within a density cutoff of 1.020 g/ml to 1.055 g/ml and with the addition of 0.5 mg/ml ethylenediaminetetracetic acid ('EDTA') thereto. After adding a sample of this mixture to a semi-permable bag, the LDL was dialyzed therefrom against a vacuum-degassed 0.01 M Tris solution containing 0.15 M NaCl and 0.1 mg/ml EDTA under dark conditions and at 4° C. for 48 hours, followed by dialysis overnight using the same equipment but with a 0.01M phosphate buffer solution containing 0.15 M NaCl and no EDTA. The dialyzed LDL protein concentrations were then determined via the method set forth in Lowry, 'Protein Measurement with the Folin Phenol Reagent,' 226 J. Biol. Chem. 497-509 (1951). […] Analysis: The kinetics of these copper-mediated oxidation reactions were followed at 10 minute intervals for a total period of 6 hours by monitoring changes in absorbance at 234 nm of each mixture using a Model UV-2101PC spectrophotometer available from Shimadzu. […]
# [5] = system: fatty streaks in the blood vessels of rabbits; test: Fatty streak formation in aorta of cholesterol-fed rabbits; format: in vivo, New Zealand white rabbits; details: rabbits on 1% cholesterol chow, 12 weeks
# Description: This investigation used an experimental system in which fatty streaks are induced in the blood vessels of rabbits by incorporation of 1 % cholesterol in their food. For further detail, see A. A. Taylor and C. V. Smith, Circulation 18 I-697 (1999). Similar experimental systems have been used previously for the evaluation of the efficacy of pharmaceutical compounds for treating, preventing, and regressing atherosclerosis. For example, see Daugherty, A., et al., “Probucol Attentuates the Development of Aortic Atherosclerosis in Cholesterol-Fed Rabbits,” 98(2) Br. J. Pharm. 612-18 (1989), which is incorporated by reference herein.
# as §1
# After a two week acclimatization period, all of the rabbits were then placed on normal rabbit chow supplemented with 1% cholesterol (ICN Biochemicals, Inc., Costa Mesa, Calif.), in order to induce fatty streak formation in their blood vessel walls. […] The cages were monitored daily in order to assure that each rabbit consumed the contents of his respective water bottle. […]
# [6] = APAP-fed versus control rabbits
smiles,measurement,setting,value
"CC(=O)Nc1ccc(O)cc1 [APAP, N-(4-hydroxyphenyl) acetamide]",TBARS formed during the LDL oxidation versus control,isolated LDL [1],comparable
same,Average Circulating total Plasma Cholesterol Level,"[2]; APAP-fed rabbits, 1% cholesterol chow, 12 weeks, control 1441 ± 87",1592 ± 43 mg/dL
same,Amount of circulating cholesterol in the blood plasma versus control,[2]; [6],did not produce a significant difference
same,LDL lipid oxidation in vitro,[3],prevent low density lipoprotein (“LDL”) lipid oxidation in vitro
same,"Average 5b, 6b-epoxide concentration in LDL","oxysterols in LDL; APAP-fed rabbits, 1% cholesterol chow, 12 weeks, control 0.24 + 0.05",0.12 + 0.13 nmol/mg LDL
same,"Average 5a, 6a-epoxide concentration in LDL","oxysterols in LDL; APAP-fed rabbits, 1% cholesterol chow, 12 weeks, control 0.49 + 0.08",0.11 + 0.05 nmol/mg LDL
same,Average 7bOH-cholesterol concentration in LDL,"oxysterols in LDL; APAP-fed rabbits, 1% cholesterol chow, 12 weeks, control 1.01 + 0.26",0.32 + 0.07 nmol/mg LDL
same,Average 7aOH-cholesterol concentration in LDL,"oxysterols in LDL; APAP-fed rabbits, 1% cholesterol chow, 12 weeks, control 2.31 + 0.62",0.58 + 0.12 nmol/mg LDL
same,Average 7keto-cholesterol concentration in LDL,"oxysterols in LDL; APAP-fed rabbits, 1% cholesterol chow, 12 weeks, control 3.86 + 1.72",0.41 + 0.14 nmol/mg LDL
same,Decrease in 7-alpha hydroxycholesterol values,oxysterols in LDL; [6],4 fold
same,Decrease in 7-beta hydroxycholesterol values,oxysterols in LDL; [6],3 fold
same,Decrease in 7-keto cholesterol values,oxysterols in LDL; [6],9 fold
same,Absorbance at 234 nm of isolated LDL (dienes) versus control,isolated LDL [4],lower absorbance values
same,Average Fatty Streak/Total Aortic Area,"[5]; about 40 mg/kg APAP in drinking water, control 0.58 + 0.06",0.32 + 0.05
same,Aortic fatty streak areas versus control,"[5]; about 40 mg/kg APAP, p<0.001",significantly reduced aortic fatty streak areas
